Results from patent publication US10702479B2, “Pharmaceutical formulation comprising sembragiline” (Hoffmann-La Roche Inc., priority 2015, dated 2020).
Values after ≈ are worked out from the molar mass of the structure shown. Read-outs that look alike come from different tables or passages of the source.

Test: Solubility of Sembragiline in media at 37° C.
Type: physicochemical
Conditions: for solubility at 4 h: read-out: Solubility of Sembragiline After 4 h

For `CC(=O)N[C@H]1CC(=O)N(c2ccc(OCc3cccc(F)c3)cc2)C1` [Sembragiline, N-[(3S)-1-[4-[(3-fluorophenyl)methoxy]phenyl]-5-oxo-pyrrolidin-3-yl]acetamide], the “Dose Solubility Ratio” value (1 mg, Water) was 25, the “Dose Solubility Ratio” value (1 mg, pH 1, HCl 0.1N) was 25 and the “Dose Solubility Ratio” value (1 mg, pH 4.5, 50 mM acetate buffer) was 25. For the same compound, the “Dose Solubility Ratio” value (1 mg, pH 6.8, 50 mM phosphate buffer) was 25, the “Dose Solubility Ratio” value (1 mg, pH 7.5, 50 mM phosphate buffer) was 25 and the “Dose Solubility Ratio” value (5 mg, Water) was 125. For the same compound, the “Dose Solubility Ratio” value (5 mg, pH 1, HCl 0.1N) was 125, the “Dose Solubility Ratio” value (5 mg, pH 4.5, 50 mM acetate buffer) was 125 and the “Dose Solubility Ratio” value (5 mg, pH 6.8, 50 mM phosphate buffer) was 125. The “Dose Solubility Ratio” value (5 mg, pH 7.5, 50 mM phosphate buffer) was 125, the solubility at 4 h (0.1 N HCl, simulated gastric fluid, pH 1, HCl 0.1N) was 40 µg/mL (≈ 117 µM) and the “Solubility of Sembragiline 250 mL” value (Water) was 10 mg. It also gave a solubility at 4 h (Water) of 40 µg/mL (≈ 117 µM), a solubility at 4 h (aqueous buffer, pH 4.5, 50 mM acetate buffer) of 40 µg/mL (≈ 117 µM) and a solubility at 4 h (aqueous buffer, pH 6.8, 50 mM phosphate buffer) of 40 µg/mL (≈ 117 µM). For the same compound, the solubility at 4 h (aqueous buffer, pH 7.5, 50 mM phosphate buffer) was 40 µg/mL (≈ 117 µM), the “Solubility of Sembragiline 250 mL” value (pH 1, HCl 0.1N) was 10 mg and the “Solubility of Sembragiline 250 mL” value (pH 4.5, 50 mM acetate buffer) was 10 mg. For the same compound, the “Solubility of Sembragiline 250 mL” value (pH 6.8, 50 mM phosphate buffer) was 10 mg and the “Solubility of Sembragiline 250 mL” value (pH 7.5, 50 mM phosphate buffer) was 10 mg.
